Test results published in the kinase profiling compilation of Christmann-Franck et al. (2016).

Columns and labels:
Experiment in all cases: KINOMEscan competition binding
Conditions in all cases: compound 10.0 µM
MAP4K1 (human) = MAP4K1 (human) (UniProt Q92918)
PAK6 (human) = PAK6 (human) (UniProt Q9NQU5)
WEE2 (human) = WEE2 (human) (UniProt P0C1S8)
PRKCH (human) = PRKCH (human) (UniProt P24723)
NEK6 (human) = NEK6 (human) (UniProt Q9HC98)
EPHB2 (human) = EPHB2 (human) (UniProt P29323)
[1] = test system: ABL1 (human), P00519 [F317I]
PTK2B (human) = PTK2B (human) (UniProt Q14289)
STK10 (human) = STK10 (human) (UniProt O94804)
CAMK2D (human) = CAMK2D (human) (UniProt Q13557)
NLK (human) = NLK (human) (UniProt Q9UBE8)
STK38L (human) = STK38L (human) (UniProt Q9Y2H1)
CDK5 (human) = CDK5 (human) (UniProt Q00535)
LIMK2 (human) = LIMK2 (human) (UniProt P53671)
TSSK1B (human) = TSSK1B (human) (UniProt Q9BXA7)
[2] = test system: FGFR3 (human), P22607 [G697C]
FER (human) = FER (human) (UniProt P16591)
SGK110 (human) = SGK110 (human) (UniProt P0C264)
Chain of SGK110 (human) (P0C264 whole entry, looked up): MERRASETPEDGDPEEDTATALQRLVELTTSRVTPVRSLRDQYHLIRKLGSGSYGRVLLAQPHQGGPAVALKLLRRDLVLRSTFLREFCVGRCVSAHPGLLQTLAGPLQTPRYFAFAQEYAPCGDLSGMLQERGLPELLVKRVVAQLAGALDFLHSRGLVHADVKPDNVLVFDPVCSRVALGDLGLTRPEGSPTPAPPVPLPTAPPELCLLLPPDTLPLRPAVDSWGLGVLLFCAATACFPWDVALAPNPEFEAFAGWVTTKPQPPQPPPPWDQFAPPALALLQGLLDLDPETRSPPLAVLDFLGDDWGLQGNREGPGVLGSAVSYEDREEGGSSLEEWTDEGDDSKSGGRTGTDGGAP

[3] = test system: ABL1 (human), P00519 [F317L]
IRAK3 (human) = IRAK3 (human) (UniProt Q9Y616)
EPHA4 (human) = EPHA4 (human) (UniProt P54764)
PRKAA1 (human) = PRKAA1 (human) (UniProt Q13131)
MAP3K11 (human) = MAP3K11 (human) (UniProt Q16584)
MYO3A (human) = MYO3A (human) (UniProt Q8NEV4)
AKT2 (human) = AKT2 (human) (UniProt P31751)
[4] = test system: EGFR (human), P00533 [L861Q]
LATS2 (human) = LATS2 (human) (UniProt Q9NRM7)
PIK3CD (human) = PIK3CD (human) (UniProt O00329)
Chain of PIK3CD (human) (O00329 whole entry, looked up): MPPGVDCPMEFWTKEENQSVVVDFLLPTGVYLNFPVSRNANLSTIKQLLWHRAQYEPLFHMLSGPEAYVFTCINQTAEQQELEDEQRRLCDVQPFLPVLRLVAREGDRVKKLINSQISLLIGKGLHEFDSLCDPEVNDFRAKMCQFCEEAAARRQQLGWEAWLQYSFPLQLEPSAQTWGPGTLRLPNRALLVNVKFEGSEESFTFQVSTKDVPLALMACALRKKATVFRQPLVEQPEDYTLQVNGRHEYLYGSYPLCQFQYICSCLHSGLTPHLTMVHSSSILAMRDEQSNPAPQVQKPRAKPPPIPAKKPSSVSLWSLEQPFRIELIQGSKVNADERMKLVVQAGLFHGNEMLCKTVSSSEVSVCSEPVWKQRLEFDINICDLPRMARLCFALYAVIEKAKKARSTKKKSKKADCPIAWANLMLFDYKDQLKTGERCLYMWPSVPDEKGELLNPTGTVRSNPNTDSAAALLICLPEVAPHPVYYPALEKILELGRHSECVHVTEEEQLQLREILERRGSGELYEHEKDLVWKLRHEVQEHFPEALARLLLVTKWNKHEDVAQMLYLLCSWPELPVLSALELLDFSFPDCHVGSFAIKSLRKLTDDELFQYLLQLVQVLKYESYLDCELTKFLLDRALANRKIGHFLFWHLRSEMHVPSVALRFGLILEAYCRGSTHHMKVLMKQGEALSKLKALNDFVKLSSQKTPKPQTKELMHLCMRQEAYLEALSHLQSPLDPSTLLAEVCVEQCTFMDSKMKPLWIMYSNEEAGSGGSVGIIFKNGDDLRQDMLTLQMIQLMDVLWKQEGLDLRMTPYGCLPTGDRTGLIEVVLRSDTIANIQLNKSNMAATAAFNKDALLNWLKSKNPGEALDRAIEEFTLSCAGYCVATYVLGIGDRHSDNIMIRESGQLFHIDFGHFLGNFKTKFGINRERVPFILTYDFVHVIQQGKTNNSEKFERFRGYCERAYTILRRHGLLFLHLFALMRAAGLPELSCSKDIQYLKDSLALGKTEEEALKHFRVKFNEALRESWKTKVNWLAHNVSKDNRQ

BTK (human) = BTK (human) (UniProt Q06187)
MAP3K10 (human) = MAP3K10 (human) (UniProt Q02779)
WEE1 (human) = WEE1 (human) (UniProt P30291)
SRC (human) = SRC (human) (UniProt P12931)
EPHA2 (human) = EPHA2 (human) (UniProt P29317)
Chain of EPHA2 (human) (P29317 whole entry, looked up): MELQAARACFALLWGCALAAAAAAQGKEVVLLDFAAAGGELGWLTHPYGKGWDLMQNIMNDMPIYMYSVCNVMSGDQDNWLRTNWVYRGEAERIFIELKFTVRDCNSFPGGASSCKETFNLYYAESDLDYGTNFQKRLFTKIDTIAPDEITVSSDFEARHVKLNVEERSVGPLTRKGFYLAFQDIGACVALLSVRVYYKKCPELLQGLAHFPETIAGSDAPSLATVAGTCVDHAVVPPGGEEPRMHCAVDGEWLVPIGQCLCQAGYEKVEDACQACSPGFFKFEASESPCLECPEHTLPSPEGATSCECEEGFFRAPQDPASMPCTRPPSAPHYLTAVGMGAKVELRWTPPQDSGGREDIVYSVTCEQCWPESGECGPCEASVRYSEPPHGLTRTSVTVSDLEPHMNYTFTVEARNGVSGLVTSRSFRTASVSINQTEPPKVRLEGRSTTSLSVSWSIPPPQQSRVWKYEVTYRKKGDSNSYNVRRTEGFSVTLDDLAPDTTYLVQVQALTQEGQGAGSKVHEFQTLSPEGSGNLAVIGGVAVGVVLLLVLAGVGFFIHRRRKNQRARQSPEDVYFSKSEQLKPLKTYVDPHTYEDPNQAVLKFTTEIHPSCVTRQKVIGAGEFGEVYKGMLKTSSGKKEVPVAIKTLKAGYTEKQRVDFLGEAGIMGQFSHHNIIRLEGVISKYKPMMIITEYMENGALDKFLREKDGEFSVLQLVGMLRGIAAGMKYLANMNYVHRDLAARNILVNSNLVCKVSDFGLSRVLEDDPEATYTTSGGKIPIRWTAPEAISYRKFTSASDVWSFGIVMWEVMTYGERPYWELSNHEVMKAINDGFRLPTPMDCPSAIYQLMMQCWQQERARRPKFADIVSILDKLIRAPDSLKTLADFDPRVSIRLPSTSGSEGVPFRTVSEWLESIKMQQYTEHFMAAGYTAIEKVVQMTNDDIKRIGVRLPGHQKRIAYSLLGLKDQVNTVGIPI

PAK7 (human) = PAK7 (human) (UniProt Q9P286)
CHEK2 (human) = CHEK2 (human) (UniProt O96017)
Chain of CHEK2 (human) (O96017 whole entry, looked up): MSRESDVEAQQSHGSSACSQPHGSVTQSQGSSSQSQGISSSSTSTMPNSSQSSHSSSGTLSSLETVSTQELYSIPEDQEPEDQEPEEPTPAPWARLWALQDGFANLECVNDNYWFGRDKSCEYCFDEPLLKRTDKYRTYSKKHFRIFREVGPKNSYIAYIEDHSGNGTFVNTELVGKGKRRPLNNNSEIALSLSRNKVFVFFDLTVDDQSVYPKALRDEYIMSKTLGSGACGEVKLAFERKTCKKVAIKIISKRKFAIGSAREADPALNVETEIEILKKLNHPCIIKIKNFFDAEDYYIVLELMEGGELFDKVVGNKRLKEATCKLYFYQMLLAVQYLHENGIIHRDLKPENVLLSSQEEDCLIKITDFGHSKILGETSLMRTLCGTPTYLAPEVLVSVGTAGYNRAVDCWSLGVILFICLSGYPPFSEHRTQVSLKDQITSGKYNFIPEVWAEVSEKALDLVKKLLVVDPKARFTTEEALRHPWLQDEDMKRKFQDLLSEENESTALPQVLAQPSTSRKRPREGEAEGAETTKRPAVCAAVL

[5] = test system: PIK3CA (human), P42336 [E545K]
MAPKAPK5 (human) = MAPKAPK5 (human) (UniProt Q8IW41)
TIE1 (human) = TIE1 (human) (UniProt P35590)
CDC42BPB (human) = CDC42BPB (human) (UniProt Q9Y5S2)
CAMK1D (human) = CAMK1D (human) (UniProt Q8IU85)
[6] = target: JAK2 JH1 catalytic (human) (UniProt O60674)
Chain of JAK2 JH1 catalytic (human) (O60674 whole entry, looked up): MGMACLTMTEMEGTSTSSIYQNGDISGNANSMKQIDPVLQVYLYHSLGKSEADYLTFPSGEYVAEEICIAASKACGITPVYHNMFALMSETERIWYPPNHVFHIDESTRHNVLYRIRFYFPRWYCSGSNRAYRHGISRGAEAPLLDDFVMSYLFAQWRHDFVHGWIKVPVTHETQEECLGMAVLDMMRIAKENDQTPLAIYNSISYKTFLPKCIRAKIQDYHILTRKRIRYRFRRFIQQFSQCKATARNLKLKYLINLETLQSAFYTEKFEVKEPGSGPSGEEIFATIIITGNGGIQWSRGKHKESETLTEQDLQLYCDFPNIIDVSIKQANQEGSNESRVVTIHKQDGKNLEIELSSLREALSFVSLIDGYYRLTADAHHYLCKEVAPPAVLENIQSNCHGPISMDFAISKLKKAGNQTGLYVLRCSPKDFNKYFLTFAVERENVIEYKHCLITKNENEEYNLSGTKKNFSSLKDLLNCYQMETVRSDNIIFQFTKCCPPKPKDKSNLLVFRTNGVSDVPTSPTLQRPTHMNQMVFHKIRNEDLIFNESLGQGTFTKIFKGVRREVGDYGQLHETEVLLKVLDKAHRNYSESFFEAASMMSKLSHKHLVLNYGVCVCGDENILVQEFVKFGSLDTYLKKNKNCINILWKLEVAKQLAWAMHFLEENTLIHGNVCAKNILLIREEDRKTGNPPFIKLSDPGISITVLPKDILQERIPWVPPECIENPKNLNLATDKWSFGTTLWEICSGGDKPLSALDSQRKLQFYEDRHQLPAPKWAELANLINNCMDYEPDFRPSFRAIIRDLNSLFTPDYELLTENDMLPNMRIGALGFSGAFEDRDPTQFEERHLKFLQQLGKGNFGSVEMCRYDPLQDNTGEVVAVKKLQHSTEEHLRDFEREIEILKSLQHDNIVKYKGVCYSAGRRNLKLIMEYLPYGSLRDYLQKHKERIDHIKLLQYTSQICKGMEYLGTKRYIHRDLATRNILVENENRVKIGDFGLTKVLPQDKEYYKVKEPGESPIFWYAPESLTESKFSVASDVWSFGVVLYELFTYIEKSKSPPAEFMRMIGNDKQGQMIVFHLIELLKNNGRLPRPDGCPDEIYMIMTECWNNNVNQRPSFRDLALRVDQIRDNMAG

CDKL2 (human) = CDKL2 (human) (UniProt Q92772)

Chain of NEK6 (human) (Q9HC98 whole entry, looked up): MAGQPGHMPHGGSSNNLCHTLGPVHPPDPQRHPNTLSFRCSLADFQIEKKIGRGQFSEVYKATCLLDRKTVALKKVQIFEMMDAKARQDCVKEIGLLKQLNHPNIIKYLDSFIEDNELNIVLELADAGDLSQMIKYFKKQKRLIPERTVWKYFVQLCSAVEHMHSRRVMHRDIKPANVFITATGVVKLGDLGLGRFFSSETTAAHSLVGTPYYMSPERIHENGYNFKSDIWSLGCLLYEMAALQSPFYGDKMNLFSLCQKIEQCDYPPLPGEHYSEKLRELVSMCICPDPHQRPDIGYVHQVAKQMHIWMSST
Chain of PRKCH (human) (P24723 whole entry, looked up): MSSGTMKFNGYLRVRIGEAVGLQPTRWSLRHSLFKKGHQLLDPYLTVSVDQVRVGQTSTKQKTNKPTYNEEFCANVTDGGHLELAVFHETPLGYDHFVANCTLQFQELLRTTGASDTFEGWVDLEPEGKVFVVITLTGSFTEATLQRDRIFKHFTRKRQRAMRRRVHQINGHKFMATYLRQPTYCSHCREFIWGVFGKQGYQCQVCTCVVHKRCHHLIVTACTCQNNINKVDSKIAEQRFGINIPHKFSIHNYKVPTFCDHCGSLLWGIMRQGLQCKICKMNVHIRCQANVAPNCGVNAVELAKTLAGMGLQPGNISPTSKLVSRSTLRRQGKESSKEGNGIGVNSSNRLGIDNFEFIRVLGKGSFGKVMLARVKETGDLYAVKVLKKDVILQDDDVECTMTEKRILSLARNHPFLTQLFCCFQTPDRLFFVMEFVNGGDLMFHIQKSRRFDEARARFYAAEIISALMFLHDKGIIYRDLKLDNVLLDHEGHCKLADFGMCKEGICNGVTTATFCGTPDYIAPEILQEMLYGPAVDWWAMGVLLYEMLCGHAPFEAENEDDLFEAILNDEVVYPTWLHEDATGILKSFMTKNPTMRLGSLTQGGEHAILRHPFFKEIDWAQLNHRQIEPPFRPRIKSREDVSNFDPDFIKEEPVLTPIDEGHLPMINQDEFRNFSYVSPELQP

A kinase still bound, per cent of control (MAP4K1 (human)) of 82%, a kinase still bound, per cent of control (PAK6 (human)) of 74% and a kinase still bound, per cent of control (WEE2 (human)) of 94% were found for `COc1cc(N2CCN(C)CC2)ccc1Nc1ncc2c(n1)N(C)c1sccc1C(=O)N2C` in this work. The kinase still bound, per cent of control (PRKCH (human)) was 95%, the kinase still bound, per cent of control (NEK6 (human)) was 35% and the kinase still bound, per cent of control (EPHB2 (human)) was 100%. It also gave a kinase still bound, per cent of control [1] of 6.6%, a kinase still bound, per cent of control (PTK2B (human)) of 88% and a kinase still bound, per cent of control (STK10 (human)) of 100%. The kinase still bound, per cent of control (CAMK2D (human)) was 59%, the kinase still bound, per cent of control (NLK (human)) was 100% and the kinase still bound, per cent of control (STK38L (human)) was 88%. The kinase still bound, per cent of control (CDK5 (human)) was 74%, the kinase still bound, per cent of control (LIMK2 (human)) was 83% and the kinase still bound, per cent of control (TSSK1B (human)) was 38%. It also gave a kinase still bound, per cent of control [2] of 83%, a kinase still bound, per cent of control (FER (human)) of 36% and a kinase still bound, per cent of control (SGK110 (human)) of 55%. For the same compound, the kinase still bound, per cent of control [3] was 1.8%, the kinase still bound, per cent of control (IRAK3 (human)) was 77% and the kinase still bound, per cent of control (EPHA4 (human)) was 100%. It also gave a kinase still bound, per cent of control (PRKAA1 (human)) of 99%, a kinase still bound, per cent of control (MAP3K11 (human)) of 100% and a kinase still bound, per cent of control (MYO3A (human)) of 59%. It also gave a kinase still bound, per cent of control (AKT2 (human)) of 96%, a kinase still bound, per cent of control [4] of 46% and a kinase still bound, per cent of control (LATS2 (human)) of 100%. The kinase still bound, per cent of control (PIK3CD (human)) was 48%, the kinase still bound, per cent of control (BTK (human)) was 82% and the kinase still bound, per cent of control (MAP3K10 (human)) was 97%. The kinase still bound, per cent of control (WEE1 (human)) was 100%, the kinase still bound, per cent of control (SRC (human)) was 97% and the kinase still bound, per cent of control (EPHA2 (human)) was 100%. For the same compound, the kinase still bound, per cent of control (PAK7 (human)) was 71%, the kinase still bound, per cent of control (CHEK2 (human)) was 77% and the kinase still bound, per cent of control [5] was 74%. For the same compound, the kinase still bound, per cent of control (MAPKAPK5 (human)) was 69%, the kinase still bound, per cent of control (TIE1 (human)) was 93% and the kinase still bound, per cent of control (CDC42BPB (human)) was 99%. It also gave a kinase still bound, per cent of control (CAMK1D (human)) of 71%, a kinase still bound, per cent of control [6] of 34% and a kinase still bound, per cent of control (CDKL2 (human)) of 100%.

A kinase still bound, per cent of control (MAP4K1 (human)) of 64%, a kinase still bound, per cent of control (PAK6 (human)) of 100% and a kinase still bound, per cent of control (WEE2 (human)) of 70% were found for `CN1C(=O)c2ccccc2N(C)c2nc(Nc3ccc(N4CCC(O)CC4)cc3)ncc21` in this work. It also gave a kinase still bound, per cent of control (PRKCH (human)) of 100%, a kinase still bound, per cent of control (NEK6 (human)) of 96% and a kinase still bound, per cent of control (EPHB2 (human)) of 100%. For the same compound, the kinase still bound, per cent of control [1] was 28%, the kinase still bound, per cent of control (PTK2B (human)) was 78% and the kinase still bound, per cent of control (STK10 (human)) was 100%. It also gave a kinase still bound, per cent of control (CAMK2D (human)) of 88%, a kinase still bound, per cent of control (NLK (human)) of 74% and a kinase still bound, per cent of control (STK38L (human)) of 82%. For the same compound, the kinase still bound, per cent of control (CDK5 (human)) was 100%, the kinase still bound, per cent of control (LIMK2 (human)) was 100% and the kinase still bound, per cent of control (TSSK1B (human)) was 100%. It also gave a kinase still bound, per cent of control [2] of 81%, a kinase still bound, per cent of control (FER (human)) of 100% and a kinase still bound, per cent of control (SGK110 (human)) of 5.4%. The kinase still bound, per cent of control [3] was 20%, the kinase still bound, per cent of control (IRAK3 (human)) was 82% and the kinase still bound, per cent of control (EPHA4 (human)) was 97%. For the same compound, the kinase still bound, per cent of control (PRKAA1 (human)) was 17%, the kinase still bound, per cent of control (MAP3K11 (human)) was 100% and the kinase still bound, per cent of control (MYO3A (human)) was 85%. The kinase still bound, per cent of control (AKT2 (human)) was 100%, the kinase still bound, per cent of control [4] was 100% and the kinase still bound, per cent of control (LATS2 (human)) was 100%. It also gave a kinase still bound, per cent of control (PIK3CD (human)) of 58%, a kinase still bound, per cent of control (BTK (human)) of 100% and a kinase still bound, per cent of control (MAP3K10 (human)) of 100%. It also gave a kinase still bound, per cent of control (WEE1 (human)) of 100%, a kinase still bound, per cent of control (SRC (human)) of 21% and a kinase still bound, per cent of control (EPHA2 (human)) of 99%. For the same compound, the kinase still bound, per cent of control (PAK7 (human)) was 87%, the kinase still bound, per cent of control (CHEK2 (human)) was 81% and the kinase still bound, per cent of control [5] was 100%. The kinase still bound, per cent of control (MAPKAPK5 (human)) was 92%, the kinase still bound, per cent of control (TIE1 (human)) was 59% and the kinase still bound, per cent of control (CDC42BPB (human)) was 100%. The kinase still bound, per cent of control (CAMK1D (human)) was 98%, the kinase still bound, per cent of control [6] was 1.3% and the kinase still bound, per cent of control (CDKL2 (human)) was 100%.
